Experimental data reported in ChEMBL document CHEMBL5576037, “Discovery of the first ataxia telangiectasia and Rad3-related (ATR) degraders for cancer treatment” (Eur J Med Chem, 2024).
Activity calls are given as the source filed them. The calls are words filed in the database; no cut-off is given here.

What was measured:
[1] = tested on: LoVo; test: Induction of SIPA1L1 degradation in human LoVo cells at 1 uM incubated for 24 hrs by global proteomic profiling analysis; assay type: cell-based
[2] = Toxicity in BALB/c nude mouse xenografted with human LoVo cells assessed as effect on kidney at 12.5 to 25 mg/kg, ip administered twice daily for 15 days by H and E staining based analysis; assay type: organism-based; conditions: in vivo, 360 h, dose 12.5-25 mg/kg, time 15 day
[3] = tested on: LoVo; test: Cell cycle arrest in human LoVo cells assessed as accumulation of cells at S phase at 1 uM incubated for 72 hrs by PI staining based flow cytometric analysis (reference value: 25.5 %); assay type: functional
[4] = Toxicity in BALB/c nude mouse xenografted with human LoVo cells assessed as body weight loss at 12.5 to 25 mg/kg, ip administered twice daily for 15 days; assay type: organism-based; conditions: in vivo, 360 h, dose 12.5-25 mg/kg, time 15 day
[5] = tested on: LoVo; test: Cell cycle arrest in human LoVo cells assessed as accumulation of cells at G0/G1 phase at 1 uM incubated for 72 hrs by PI staining based flow cytometric analysis (reference value: 52.3 %); assay type: functional
[6] = Toxicity in BALB/c nude mouse xenografted with human LoVo cells assessed as effect on liver at 12.5 to 25 mg/kg, ip administered twice daily for 15 days by H and E staining based analysis; assay type: organism-based; conditions: in vivo, 360 h, dose 12.5-25 mg/kg, time 15 day
[7] = Half-life in BALB/c nude mouse xenografted with human LoVo cells at 25 mg/kg, ip administered as single dose and measured after 12 hrs by LC-MS/MS analysis; assay type: ADME, organism-based; conditions: in vivo
[8] = MRT (0 to t) in BALB/c nude mouse xenografted with human LoVo cells at 25 mg/kg, ip administered as single dose and measured after 12 hrs by LC-MS/MS analysis; assay type: ADME, organism-based; conditions: in vivo
[9] = tested on: LoVo; test: Induction of DNA damage in human LoVo cells assessed as increase in gammaH2AX expression at 0.5 to 1 uM incubated for 72 hrs by DAPI staining based immunofluorescence analysis; assay type: functional, cell-based; conditions: dose 0.5-1 µM
[10] = tested on: NCM460; test: Cytotoxicity against human NCM460 cells; assay type: toxicity, cell-based
[11] = biological target: T1, Protein cereblon/Serine/threonine-protein kinase ATR (Homo sapiens, UniProt Q13535+Q96SW2); test: In vivo PROTAC activity at CRBN/ATR in BALB/c nude mouse xenografted with human LoVo cells assessed as reduction in ATR protein level administered intraperitoneally once daily for 15 days by Western blot analysis; assay type: functional, organism-based; conditions: dose 12.5-25 mg/kg, route ip, time 15.0 day
T1 sequence (Q13535 whole entry, looked up): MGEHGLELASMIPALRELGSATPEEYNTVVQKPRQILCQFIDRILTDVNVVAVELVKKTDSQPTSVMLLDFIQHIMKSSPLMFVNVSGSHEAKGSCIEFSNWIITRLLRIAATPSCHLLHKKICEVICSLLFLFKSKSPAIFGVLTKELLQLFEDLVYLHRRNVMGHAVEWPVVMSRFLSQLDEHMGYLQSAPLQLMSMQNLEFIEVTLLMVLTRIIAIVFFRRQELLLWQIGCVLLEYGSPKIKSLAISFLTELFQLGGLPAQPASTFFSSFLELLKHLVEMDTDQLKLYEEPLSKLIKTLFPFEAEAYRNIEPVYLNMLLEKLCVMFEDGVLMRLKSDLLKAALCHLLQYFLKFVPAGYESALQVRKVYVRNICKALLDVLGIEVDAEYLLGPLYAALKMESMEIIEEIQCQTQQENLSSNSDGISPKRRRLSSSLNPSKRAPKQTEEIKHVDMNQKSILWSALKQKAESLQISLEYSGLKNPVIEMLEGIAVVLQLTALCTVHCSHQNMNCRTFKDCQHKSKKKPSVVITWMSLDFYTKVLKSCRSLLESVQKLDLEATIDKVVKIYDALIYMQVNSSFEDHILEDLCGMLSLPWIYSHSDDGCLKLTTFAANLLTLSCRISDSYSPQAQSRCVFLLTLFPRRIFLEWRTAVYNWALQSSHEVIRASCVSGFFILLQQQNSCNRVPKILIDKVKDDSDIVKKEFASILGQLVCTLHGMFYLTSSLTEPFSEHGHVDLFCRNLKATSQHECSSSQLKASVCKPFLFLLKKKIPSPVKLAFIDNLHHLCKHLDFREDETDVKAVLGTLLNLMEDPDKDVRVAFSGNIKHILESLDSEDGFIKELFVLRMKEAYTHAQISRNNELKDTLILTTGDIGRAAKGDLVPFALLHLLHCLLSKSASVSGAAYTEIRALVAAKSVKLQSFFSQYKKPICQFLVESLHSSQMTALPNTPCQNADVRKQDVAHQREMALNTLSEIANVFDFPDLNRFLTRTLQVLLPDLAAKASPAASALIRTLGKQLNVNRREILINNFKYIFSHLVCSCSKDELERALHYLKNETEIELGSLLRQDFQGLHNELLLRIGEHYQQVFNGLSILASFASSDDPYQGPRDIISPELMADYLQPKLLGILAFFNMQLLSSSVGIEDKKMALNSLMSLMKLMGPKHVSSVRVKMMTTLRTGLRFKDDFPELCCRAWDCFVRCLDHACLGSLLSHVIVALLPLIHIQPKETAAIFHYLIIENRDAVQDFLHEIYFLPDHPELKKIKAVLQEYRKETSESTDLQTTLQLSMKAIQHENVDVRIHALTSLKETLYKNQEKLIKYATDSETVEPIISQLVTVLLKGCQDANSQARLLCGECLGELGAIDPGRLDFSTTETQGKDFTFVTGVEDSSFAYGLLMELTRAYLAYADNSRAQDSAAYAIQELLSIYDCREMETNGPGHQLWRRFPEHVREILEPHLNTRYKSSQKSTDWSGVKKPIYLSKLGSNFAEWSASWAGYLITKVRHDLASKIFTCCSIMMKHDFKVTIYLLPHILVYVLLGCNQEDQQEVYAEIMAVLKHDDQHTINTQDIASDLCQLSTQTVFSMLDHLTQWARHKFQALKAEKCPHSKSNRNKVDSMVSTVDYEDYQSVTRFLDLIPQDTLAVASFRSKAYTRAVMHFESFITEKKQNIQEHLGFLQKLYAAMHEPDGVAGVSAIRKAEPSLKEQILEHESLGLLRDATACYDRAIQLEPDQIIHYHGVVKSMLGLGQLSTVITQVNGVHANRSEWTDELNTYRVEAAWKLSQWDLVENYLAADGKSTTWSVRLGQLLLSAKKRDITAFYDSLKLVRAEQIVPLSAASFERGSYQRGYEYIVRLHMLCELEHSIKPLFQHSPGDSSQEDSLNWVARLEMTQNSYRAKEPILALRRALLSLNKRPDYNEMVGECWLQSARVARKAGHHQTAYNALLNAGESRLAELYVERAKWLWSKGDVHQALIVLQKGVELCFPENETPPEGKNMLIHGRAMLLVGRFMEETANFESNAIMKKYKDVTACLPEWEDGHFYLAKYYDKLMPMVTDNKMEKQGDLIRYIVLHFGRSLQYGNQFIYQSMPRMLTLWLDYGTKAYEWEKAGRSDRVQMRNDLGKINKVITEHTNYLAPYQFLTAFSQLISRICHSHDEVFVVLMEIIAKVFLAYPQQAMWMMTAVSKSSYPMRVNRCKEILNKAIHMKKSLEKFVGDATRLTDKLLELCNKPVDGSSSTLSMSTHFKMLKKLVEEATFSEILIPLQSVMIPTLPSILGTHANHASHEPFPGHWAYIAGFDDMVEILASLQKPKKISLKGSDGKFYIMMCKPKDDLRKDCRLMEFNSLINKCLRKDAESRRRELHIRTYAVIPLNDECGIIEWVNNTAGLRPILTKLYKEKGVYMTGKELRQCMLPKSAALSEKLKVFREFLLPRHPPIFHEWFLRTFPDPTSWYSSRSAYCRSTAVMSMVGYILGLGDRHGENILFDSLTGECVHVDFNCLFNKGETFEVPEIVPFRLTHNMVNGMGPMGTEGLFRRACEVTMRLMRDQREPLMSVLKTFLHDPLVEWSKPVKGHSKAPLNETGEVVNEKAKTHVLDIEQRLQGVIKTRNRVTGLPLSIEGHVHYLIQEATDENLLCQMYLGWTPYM
T1 sequence (Q96SW2 whole entry, looked up): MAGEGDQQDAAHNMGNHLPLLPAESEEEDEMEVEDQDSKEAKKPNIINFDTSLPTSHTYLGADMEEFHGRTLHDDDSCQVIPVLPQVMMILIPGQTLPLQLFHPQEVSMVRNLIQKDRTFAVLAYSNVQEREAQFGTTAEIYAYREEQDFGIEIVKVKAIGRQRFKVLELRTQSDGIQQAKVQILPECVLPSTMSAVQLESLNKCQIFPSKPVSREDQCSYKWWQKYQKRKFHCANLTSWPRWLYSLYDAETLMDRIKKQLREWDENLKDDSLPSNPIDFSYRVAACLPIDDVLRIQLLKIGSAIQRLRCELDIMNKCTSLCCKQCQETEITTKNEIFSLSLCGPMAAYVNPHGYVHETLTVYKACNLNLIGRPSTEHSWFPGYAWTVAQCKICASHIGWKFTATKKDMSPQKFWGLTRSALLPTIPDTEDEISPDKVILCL

[12] = tested on: Mus musculus; test: Effect on CHK1 protein expression in BALB/c nude mouse xenografted with human LoVo cells at 12.5 to 25 mg/kg, ip administered once daily for 15 days by Western blot analysis; assay type: functional, organism-based; conditions: dose 12.5-25 mg/kg, time 15.0 day
[13] = Toxicity in BALB/c nude mouse xenografted with human LoVo cells assessed as effect on lung at 12.5 to 25 mg/kg, ip administered twice daily for 15 days by H and E staining based analysis; assay type: organism-based; conditions: in vivo, 360 h, dose 12.5-25 mg/kg, time 15 day
[14] = Cmax in BALB/c nude mouse xenografted with human LoVo cells at 25 mg/kg, ip administered as single dose and measured after 12 hrs by LC-MS/MS analysis; assay type: ADME, organism-based; conditions: in vivo
[15] = biological target: T1, Protein cereblon/Serine/threonine-protein kinase ATR; test: PROTAC activity at CRBN/ATR in human LoVo cells assessed as induction of ATR degradation at 2.5 uM preincubated with MG132 for 4 hrs followed by compound addition and measured after 48 hrs by Western blot analysis; assay type: cell-based
[16] = biological target: T1, Protein cereblon/Serine/threonine-protein kinase ATR; test: PROTAC activity at CRBN/ATR in human LoVo cells assessed as induction of ATR degradation at 2.5 uM preincubated for 36 hrs followed by compound washout and measured after 12 to 48 hrs by Western blot analysis; assay type: cell-based
[17] = tested on: LoVo; test: Induction of LBP degradation in human LoVo cells at 1 uM incubated for 24 hrs by global proteomic profiling analysis; assay type: cell-based
[18] = Toxicity in BALB/c nude mouse xenografted with human LoVo cells assessed as body weight loss at 12.5 mg/kg, ip administered once daily for 15 days in presence of cisplatin; assay type: organism-based; conditions: in vivo, 360 h, time 15 day
[19] = AUC (0 to infinity) in BALB/c nude mouse xenografted with human LoVo cells at 25 mg/kg, ip administered as single dose and measured after 12 hrs by LC-MS/MS analysis; assay type: ADME, organism-based; conditions: in vivo
[20] = biological target: T2, Serine/threonine-protein kinase Chk1 (Homo sapiens) (UniProt O14757); test: Inhibition of CHK1 phosphorylation at Ser345 residue in human LoVo cells incubated for 72 hrs by Western blot analysis; assay type: cell-based; conditions: dose 0.16-10 µM
T2 sequence (whole entry): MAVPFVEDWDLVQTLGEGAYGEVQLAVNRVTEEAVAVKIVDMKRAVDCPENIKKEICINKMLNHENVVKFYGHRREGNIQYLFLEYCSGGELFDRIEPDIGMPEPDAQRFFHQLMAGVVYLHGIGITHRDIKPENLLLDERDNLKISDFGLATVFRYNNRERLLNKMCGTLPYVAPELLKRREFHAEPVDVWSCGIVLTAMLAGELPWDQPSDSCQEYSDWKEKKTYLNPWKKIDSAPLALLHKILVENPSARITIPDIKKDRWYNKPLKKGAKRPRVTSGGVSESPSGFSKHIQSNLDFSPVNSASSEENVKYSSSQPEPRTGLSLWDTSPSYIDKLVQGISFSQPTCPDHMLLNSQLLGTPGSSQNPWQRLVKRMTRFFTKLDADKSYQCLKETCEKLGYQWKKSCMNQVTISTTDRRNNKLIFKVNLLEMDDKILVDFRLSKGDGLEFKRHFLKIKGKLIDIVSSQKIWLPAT

- half-life [7]: 4.75 h
- MRT last at 12 h [8]: 4.21 h
- Activity [11]: Dose-Dependent Effect
- Cmax [14]: 1180 ng/mL
- Activity [15]: inactive
- Activity [16]: Active
- AUC(0-inf) [19]: 4070 ng·h/mL
- inhibition [20]: Dose-Dependent Effect
Compound: C[C@@H]1COCCN1c1cc(C2([S@@](C)(=O)=NC(=O)CCc3cn(CCCCCCCC(=O)Nc4cccc5c4C(=O)N(C4CCC(=O)NC4=O)C5=O)nn3)CC2)nc(-c2ccnc3[nH]ccc23)n1 (stereo not given in full)
- Activity [1]: Active
- Activity [2]: Non-Toxic
- Activity [3]: 19.3%
- Activity [4]: Non-Toxic
- Activity [5]: 67.3%
- Activity [6]: Non-Toxic
- Activity [9]: Active
- Activity [10]: Non-Toxic
- Activity [12]: inactive
- Activity [13]: Non-Toxic
- Activity [17]: Active
- Activity [18]: Non-Toxic
